# Test results published in PubChem BioAssay AID608 (Sanford-Burnham Center for Chemical Genomics, 2007).
# Active and inactive are the calls of the source. No rule for the calls is given here.
# Biological target: Peptidyl-prolyl cis-trans isomerase FKBP1A (Homo sapiens) (UniProt P62942)
# Test: small-molecule binding to FKBP12 – biophysical, NMR detection (AID 608)
# Settings: purified FKBP12
# Sequence of Peptidyl-prolyl cis-trans isomerase FKBP1A (Homo sapiens) (P62942 whole entry, looked up): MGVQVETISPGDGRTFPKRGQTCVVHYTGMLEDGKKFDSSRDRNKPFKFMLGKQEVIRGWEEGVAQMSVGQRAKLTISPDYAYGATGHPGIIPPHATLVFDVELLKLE
row,SMILES,Kd
1,CC(=O)OC1CCC2(C)C3CC(=O)C4(C)C(CC5OC6(CCC(C)CO6)[C@@H](C)C54)C3CC[C@H]2C1 (some centres not stated),> 4 mM (inactive)
2,NCc1ccc2c(c1)CCO2,> 4 mM (inactive)
3,COC(=O)c1oc2ccc(Cl)cc2c1NC(C)=O,> 4 mM (inactive)
4,COCC(=O)Nc1ccc(F)cc1F,> 4 mM (inactive)
5,Nc1cc(N)nc(SCc2ccccc2)n1,> 4 mM (inactive)
6,O=c1ccc(=O)n(CN2CCc3ccccc3C2)[nH]1,> 4 mM (inactive)
7,CNc1nnc(Cc2csc(N)n2)s1,> 4 mM (inactive)
8,CS/C(N)=C\C(C)=O,> 4 mM (inactive)
9,COc1c2ccoc2nc2c(OC)c(OCC(O)C(C)(C)O)ccc12 (configuration not stated),> 4 mM (inactive)
10,Nc1nonc1-c1nc2ccccc2[nH]1,> 4 mM (inactive)
11,CCOC(=O)C1CN(C)CCN1C (configuration not stated),> 4 mM (inactive)
12,Cc1sc2nc[nH]c(=S)c2c1C,> 4 mM (inactive)
13,CC(=O)Nc1cccc(-c2nnc(-c3ccccc3)o2)c1,> 4 mM (inactive)
14,NCc1ccc(CN2CCOCC2)cc1,> 4 mM (inactive)
15,CC(=O)N1CC2(C)CN(C(C)=O)CC(C)(C1)C2,> 4 mM (inactive)
16,Cc1ccc2cccc(OC(=O)N3CCCC3)c2n1,> 4 mM (inactive)
17,Cn1c(=O)cc(N2CCCCC2)[nH]c1=O,> 4 mM (inactive)
18,Cn1c2ccccc2n2c(=S)[nH]nc12,> 4 mM (inactive)
19,O=C(Nn1cnnc1)c1cccc(C(F)(F)F)c1,> 4 mM (inactive)
20,NC(=O)c1ccc(NC(=O)c2ccco2)cc1,> 4 mM (inactive)
21,Nc1nc(-c2ccc(O)cc2)cs1,> 4 mM (inactive)
22,Cc1ccc(SC(C)c2nc(-c3ccncc3)no2)cc1 (configuration not stated),inactive
23,C=C1C[C@]23C[C@@]1(O)CC[C@H]2[C@@]12C=C[C@H](O)C(C)(C(=O)O1)[C@H]2[C@@H]3C(=O)O,> 4 mM (inactive)
24,COc1ccc2c(c1)OC[C@@H](Cc1ccc(OC)c(OC)c1)[C@H]2O,> 4 mM (inactive)
25,Cc1cc(C)n(CCC(=O)O)n1,> 4 mM (inactive)

row,SMILES,Kd
1,c1cc(CNc2ccc3c(c2)OCCO3)ccn1,> 4 mM (inactive)
2,CC1O[C@@H](Oc2c(-c3ccc(O)c(O)c3)oc3cc(O)cc(O)c3c2=O)[C@H](O)[C@H](O)[C@H]1O (some centres not stated),> 4 mM (inactive)
3,O=C1c2ccccc2C(=O)c2c1ccc(O)c2O,> 4 mM (inactive)
4,O=C(O)CCC1=C2c3ccccc3CCN2C(=O)CC1,> 4 mM (inactive)
5,Nc1cccc2c(=O)[nH][nH]c(=O)c12,> 4 mM (inactive)
6,Cc1nnc(NCCO)[nH]c1=O,> 4 mM (inactive)
7,COc1cc(OC)c2c(=O)c(-c3ccccc3)coc2c1,> 4 mM (inactive)
8,COc1cccc(-c2cc(=O)c3cc(OC)ccc3o2)c1,> 4 mM (inactive)
9,CC1=NN(C(N)=S)C(C)(C)C1,> 4 mM (inactive)
10,CC(=O)Oc1ccccc1N1C(=O)C=CC1=O,> 4 mM (inactive)
11,O=C(COc1ccccc1Cl)N1CCCC1,> 4 mM (inactive)
12,Cc1cc(NC(=O)CSc2nncn2C)no1,> 4 mM (inactive)
13,C=C1C(=O)OC2CC1C(OC(C)=O)C/C(C)=C/CC/C(C)=C/CC[C@]2(C)O (some centres not stated),> 4 mM (inactive)
14,c1ccc2c(c1)ncn2CCn1cnc2ccccc21,> 4 mM (inactive)
15,CCCCCCCCCCCC1=C(O)C(=O)C=C(O)C1=O,> 4 mM (inactive)
16,Cc1nc2ccccc2c(=O)n1-c1cccc(O)c1,> 4 mM (inactive)
17,O=C(Nc1ccc(-c2nnco2)cc1)c1ccccc1,> 4 mM (inactive)
18,Cc1nnc(NC(=O)C(C)Sc2nncn2C)s1 (configuration not stated),> 4 mM (inactive)
19,Nc1ccc2[nH]ncc2c1,> 4 mM (inactive)
20,CC(C)(C)NC(=O)N1CCC(C(N)=O)CC1,> 4 mM (inactive)
21,Cc1ccc(C)c(C(=O)n2cnnc2N)c1,> 4 mM (inactive)
22,O=C(O)c1cccc(CSc2ncccn2)c1,> 4 mM (inactive)
23,COc1ccc2c(C)cc(=O)oc2c1,> 4 mM (inactive)
24,O=C(O)CN1CCNCC1,> 4 mM (inactive)
25,NC(=O)c1cccc2c(=O)oc3ccccc3c12,> 4 mM (inactive)

row,SMILES,Kd
1,Cc1cc(=O)[nH]c(N2CCN(Cc3ccccc3)CC2)n1,> 4 mM (inactive)
2,CCc1ccccc1OCc1nnc(N)s1,> 4 mM (inactive)
3,Cc1noc(C)c1CSc1nc2ccccc2[nH]1,0.157 mM
4,COC(=O)NNc1ncnc(N)c1[N+](=O)[O-],> 4 mM (inactive)
5,Cc1cc(C(=O)N2CCC3(CC2)OCCO3)cs1,> 4 mM (inactive)
6,CN1CC(=O)Nc2ccc([N+](=O)[O-])cc2C1=O,> 4 mM (inactive)
7,Cn1c(=O)c2ccccc2n(Cc2ccccc2F)c1=O,> 4 mM (inactive)
8,O=C(NC(=S)NCCO)c1ccccc1,> 4 mM (inactive)
9,O=C(O)c1ccc(Nc2nncc(=O)[nH]2)cc1,> 4 mM (inactive)
10,NC(=S)NC1CCS(=O)(=O)C1 (configuration not stated),> 4 mM (inactive)
11,Nc1cccc2nsnc12,> 4 mM (inactive)
12,Cc1cc[n+](-c2nc([O-])sc2C=O)cc1,> 4 mM (inactive)
13,CCc1cc2c(SCC(=O)O)ncnc2s1,> 4 mM (inactive)
14,CC(=O)Nc1ccc(C)cc1NC(C)=O,> 4 mM (inactive)
15,O=C1C2C3C=CC(C3)C2C(=O)N1c1ccccn1 (configuration not stated),> 4 mM (inactive)
16,Cc1ccc(N2C(=O)CC(=O)NC2=O)cc1,> 4 mM (inactive)
17,O=C(O)CN1C(=O)c2cccc([N+](=O)[O-])c2C1=O,> 4 mM (inactive)
18,O=C(NCc1ccccn1)c1ccc(Cl)cc1Cl,> 4 mM (inactive)
19,Cc1c(O)c(O)cc2c1CC=C1[C@@]2(C)CC[C@@]2(C)C3C[C@](C)(C(=O)O)CC[C@]3(C)CC[C@]12C (some centres not stated),> 4 mM (inactive)
20,c1ccc(-n2nnnc2-n2cnc3ccccc32)cc1,> 4 mM (inactive)
21,O=c1[nH]c(N2CCOCC2)nc2ccccc12,> 4 mM (inactive)
22,NCc1ccc(S(N)(=O)=O)cc1,> 4 mM (inactive)
23,CC(C)C(C)/C=C/C(C)C1CCC2C3=CC=C4CC(O)CCC4(C)C3CCC21C (configuration not stated),> 4 mM (inactive)
24,COC(=O)c1ccc(N2CCOCC2)nc1,> 4 mM (inactive)
25,CCOc1nc(C)ccc1-c1noc(-c2ccncc2)n1,> 4 mM (inactive)

row,SMILES,Kd
1,Cc1ccc(SCc2nc(-c3cccnc3)no2)cc1,> 4 mM (inactive)
2,Cc1cc(C)n2c(SCc3cccs3)nnc2n1,> 4 mM (inactive)
3,C=CCCCCCCCCCCCC(O)CC(O)CO (configuration not stated) (tested in a mixture with another compound),> 4 mM (inactive)
4,O=C(NC1CCS(=O)(=O)C1)C1CCCCC1 (configuration not stated),> 4 mM (inactive)
5,Cc1occc1C(=O)Nc1cc(C(C)(C)C)on1,> 4 mM (inactive)
6,CCCN1CCC(N2CCC(O)CC2)CC1,> 4 mM (inactive)
7,CC12CN([N+](=O)[O-])C3(C(N)=O)CC1CCC23C (configuration not stated),> 4 mM (inactive)
8,O=C(C1CCC(C(=O)N2CCCC2)CC1)N1CCCC1 (configuration not stated),> 4 mM (inactive)
9,Cc1sc2nc3n(c(=O)c2c1C)CCCS3,> 4 mM (inactive)
10,O=C(c1cccs1)N1CCCc2ccccc21,> 4 mM (inactive)
11,CNC(=O)COc1cccc2c1CCNC2=O,> 4 mM (inactive)
12,COc1ccc(-c2ccc(=O)n(CC(N)=O)n2)cc1,> 4 mM (inactive)
13,C=C[C@@](C)(O)CCC1C(=C)CCC2[C@@](C)(CO)CCC[C@]12C (some centres not stated),> 4 mM (inactive)
14,NC(=O)CC1Sc2ccccc2NC1=O (configuration not stated),> 4 mM (inactive)
15,O=c1/c(=C/c2cccs2)sc2ncnn12,> 4 mM (inactive)
16,C/C(N)=C/C(=O)N1CCCCC1,> 4 mM (inactive)
17,Cc1cc(=O)oc2cc3c(cc12)OCCO3,> 4 mM (inactive)
18,COCC(=O)Nc1cccc2ccccc12,> 4 mM (inactive)
19,Cc1ccc(-c2nc(-c3cccnc3)no2)c(C)c1,> 4 mM (inactive)
20,C[n+]1ccn(C/C(N)=N/O)c1,> 4 mM (inactive)
21,NCCc1c[nH]c2ccccc12,> 4 mM (inactive)
22,COC(CC(=O)O)c1nc2ccccc2s1 (configuration not stated),> 4 mM (inactive)
23,CSc1ccccc1NC(=O)c1c(C)noc1C,> 4 mM (inactive)
24,CC(C)NC(=S)N1CCN(S(C)(=O)=O)CC1,> 4 mM (inactive)
25,O=C1NC(=O)C(=Cc2ccccc2)C(=O)N1,> 4 mM (inactive)

row,SMILES,Kd
1,COc1ccc(-c2cc(=O)c3ccccc3o2)cc1,> 4 mM (inactive)
2,CCC[C@@H]1CCCCN1,> 4 mM (inactive)
3,CC(=O)NCc1nc2ccccc2[nH]1,> 4 mM (inactive)
4,CSc1ccccc1NC(=O)c1ccco1,> 4 mM (inactive)
5,Cn1c(CSc2nc3ccccc3s2)n[nH]c1=S,> 4 mM (inactive)
6,CN(C)c1ccc(N2C(=O)CCC2=O)cc1,> 4 mM (inactive)
7,O=C(Nc1ccc(OCC(=O)N2CCOCC2)cc1)c1ccccc1F,inactive
8,COC(=O)[C@]1(C)CC[C@]2(C)CC[C@]3(C)C4=CC=C5C(=CC(=O)C(O)=C5C)[C@]4(C)CC[C@@]3(C)[C@@H]2C1,> 4 mM (inactive)
9,COc1ccccc1/C=C/CN1CCOCC1,> 4 mM (inactive)
10,CSc1ccccc1NC(=O)c1ccc(C)o1,> 4 mM (inactive)
11,S=C=NCc1ccccc1,> 4 mM (inactive)
12,Cc1oc2nc3c(c(=O)[nH]c(=O)n3C)n2c1C,> 4 mM (inactive)
13,Cc1ccc2c(c1)=C(c1sc(N)nc1O)C(=O)N=2,> 4 mM (inactive)
14,Cn1c(=O)c2c([nH]c(=O)n2C)n(C)c1=O,> 4 mM (inactive)
15,COc1cc(C)c(Cl)cc1S(=O)(=O)N(C)C,> 4 mM (inactive)
16,Cc1noc(C)c1C(=O)N1CCC2(CC1)OCCO2,> 4 mM (inactive)
17,Cc1cc(C)cc(C(=O)n2cnnc2N)c1,> 4 mM (inactive)
18,CCC(=O)NC(=S)Nc1ccc(O)cc1,> 4 mM (inactive)
19,O=C(O)C1CSC(c2cccnc2)N1 (configuration not stated),> 4 mM (inactive)
20,c1coc(CNc2nc(-c3ccncc3)cs2)c1,> 4 mM (inactive)
21,COc1ccc(S(=O)(=O)N2CCC(C(N)=O)CC2)cc1,> 4 mM (inactive)
22,COc1cc(/C=C2\SC(=S)NC2=O)ccc1O,> 4 mM (inactive)
